IC50 data for 20 molecules are collected here from US12435046B2, “Alkynyl quinazoline compounds” (Black Diamond Therapeutics, Inc., priority 2019, dated 2025).

The term IC50 denotes the concentration needed to halve the response being measured.

Common to all, as to assay type: cell-based
What all share (conditions): Table A; BaF3 cells, 3 days

The target of one assay is T1, EGFR wt (Homo sapiens, UniProt P00533).
T1 construct: expressed in transfected cells; host or cells: BaF3 (murine pro-B) cells, retroviral transduction with pMXs-IRES-Blasticidin
The assay is described as follows: BaF3 cell proliferation assay (CellTiterGlo), EGFR wt. Put shortly: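 BaF3 cells engineered by retroviral transduction to express EGFR and selected for blasticidin resistance and IL-3 independent growth were suspended at 1.3E5 c/ml in RPMI with 10% heat inactivated FBS, 2% L-glutamine and 1% Pen/Strep. They were plated in triplicate in 96 well plates and exposed to vehicle or varying drug concentrations for 3 days. Viability was quantified by CellTiterGlo ATP luminescence, normalized to vehicle, and curves fitted in PRISM.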
In general terms: Cellular ATP, detected with luciferase, serves as a proxy for viable cell number.

The next assay has as its target T2, HER2 YVMA (Homo sapiens, UniProt P04626, INS775YVMA).
T2 construct: expressed in transfected cells; host or cells: BaF3 (murine pro-B) cells
The assay is described as follows: BaF3 cell proliferation assay (CellTiterGlo), HER2 YVMA.

Another assay deals with T3, HER2 S310F (Homo sapiens, UniProt P04626, S310F).
T3 construct: expressed in transfected cells; host or cells: BaF3 (murine pro-B) cells
The assay is described as follows: BaF3 cell proliferation assay (CellTiterGlo), HER2 S310F.

A further assay has as its target T4, EGFR V3 (Homo sapiens, UniProt P00533, DELINS30-297G).
T4 construct: expressed in transfected cells; host or cells: BaF3 (murine pro-B) cells, retroviral transduction with pMXs-IRES-Blasticidin
In words: BaF3 cell proliferation assay (CellTiterGlo), EGFR V3. The procedure, abridged:
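BaF3 cells made IL-3-independent by retroviral expression of each EGFR or HER2 mutant were treated in triplicate with compound for 72 h. Viability was read by CellTiterGlo ATP luminescence and normalised to vehicle, and EC50 was fitted from dose-response curves.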

T1 sequence (P00533 25-1210): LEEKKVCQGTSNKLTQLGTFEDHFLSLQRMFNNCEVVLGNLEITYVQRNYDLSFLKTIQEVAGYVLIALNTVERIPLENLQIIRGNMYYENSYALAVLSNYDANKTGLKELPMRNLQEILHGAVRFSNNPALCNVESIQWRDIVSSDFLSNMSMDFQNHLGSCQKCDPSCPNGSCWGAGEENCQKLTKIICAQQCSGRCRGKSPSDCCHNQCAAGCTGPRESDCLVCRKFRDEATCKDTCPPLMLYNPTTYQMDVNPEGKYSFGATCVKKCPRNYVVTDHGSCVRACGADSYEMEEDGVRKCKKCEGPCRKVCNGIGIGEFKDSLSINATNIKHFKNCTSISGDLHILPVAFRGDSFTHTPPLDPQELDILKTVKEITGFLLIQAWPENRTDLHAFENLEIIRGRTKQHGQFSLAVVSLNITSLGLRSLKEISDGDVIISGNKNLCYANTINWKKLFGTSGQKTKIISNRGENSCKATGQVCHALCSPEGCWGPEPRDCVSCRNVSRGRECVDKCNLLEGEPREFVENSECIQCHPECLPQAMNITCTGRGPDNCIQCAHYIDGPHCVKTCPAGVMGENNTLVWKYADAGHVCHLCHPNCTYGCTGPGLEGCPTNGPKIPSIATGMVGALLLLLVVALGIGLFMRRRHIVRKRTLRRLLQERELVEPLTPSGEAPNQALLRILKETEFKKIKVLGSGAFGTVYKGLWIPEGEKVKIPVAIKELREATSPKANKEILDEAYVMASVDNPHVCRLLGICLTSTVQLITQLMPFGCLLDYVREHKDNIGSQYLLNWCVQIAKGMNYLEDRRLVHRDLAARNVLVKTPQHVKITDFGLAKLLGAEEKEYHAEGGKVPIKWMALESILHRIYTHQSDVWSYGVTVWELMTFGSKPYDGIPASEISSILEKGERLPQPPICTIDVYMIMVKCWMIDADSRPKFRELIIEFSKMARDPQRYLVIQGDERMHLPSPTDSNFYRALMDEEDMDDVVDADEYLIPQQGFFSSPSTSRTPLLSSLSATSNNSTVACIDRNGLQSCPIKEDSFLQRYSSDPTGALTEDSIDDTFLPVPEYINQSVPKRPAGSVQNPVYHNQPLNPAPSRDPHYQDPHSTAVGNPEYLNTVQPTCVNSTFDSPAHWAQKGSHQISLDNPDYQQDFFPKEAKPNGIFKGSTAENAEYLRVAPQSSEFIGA
T3 sequence (P04626 23-1255 S310F): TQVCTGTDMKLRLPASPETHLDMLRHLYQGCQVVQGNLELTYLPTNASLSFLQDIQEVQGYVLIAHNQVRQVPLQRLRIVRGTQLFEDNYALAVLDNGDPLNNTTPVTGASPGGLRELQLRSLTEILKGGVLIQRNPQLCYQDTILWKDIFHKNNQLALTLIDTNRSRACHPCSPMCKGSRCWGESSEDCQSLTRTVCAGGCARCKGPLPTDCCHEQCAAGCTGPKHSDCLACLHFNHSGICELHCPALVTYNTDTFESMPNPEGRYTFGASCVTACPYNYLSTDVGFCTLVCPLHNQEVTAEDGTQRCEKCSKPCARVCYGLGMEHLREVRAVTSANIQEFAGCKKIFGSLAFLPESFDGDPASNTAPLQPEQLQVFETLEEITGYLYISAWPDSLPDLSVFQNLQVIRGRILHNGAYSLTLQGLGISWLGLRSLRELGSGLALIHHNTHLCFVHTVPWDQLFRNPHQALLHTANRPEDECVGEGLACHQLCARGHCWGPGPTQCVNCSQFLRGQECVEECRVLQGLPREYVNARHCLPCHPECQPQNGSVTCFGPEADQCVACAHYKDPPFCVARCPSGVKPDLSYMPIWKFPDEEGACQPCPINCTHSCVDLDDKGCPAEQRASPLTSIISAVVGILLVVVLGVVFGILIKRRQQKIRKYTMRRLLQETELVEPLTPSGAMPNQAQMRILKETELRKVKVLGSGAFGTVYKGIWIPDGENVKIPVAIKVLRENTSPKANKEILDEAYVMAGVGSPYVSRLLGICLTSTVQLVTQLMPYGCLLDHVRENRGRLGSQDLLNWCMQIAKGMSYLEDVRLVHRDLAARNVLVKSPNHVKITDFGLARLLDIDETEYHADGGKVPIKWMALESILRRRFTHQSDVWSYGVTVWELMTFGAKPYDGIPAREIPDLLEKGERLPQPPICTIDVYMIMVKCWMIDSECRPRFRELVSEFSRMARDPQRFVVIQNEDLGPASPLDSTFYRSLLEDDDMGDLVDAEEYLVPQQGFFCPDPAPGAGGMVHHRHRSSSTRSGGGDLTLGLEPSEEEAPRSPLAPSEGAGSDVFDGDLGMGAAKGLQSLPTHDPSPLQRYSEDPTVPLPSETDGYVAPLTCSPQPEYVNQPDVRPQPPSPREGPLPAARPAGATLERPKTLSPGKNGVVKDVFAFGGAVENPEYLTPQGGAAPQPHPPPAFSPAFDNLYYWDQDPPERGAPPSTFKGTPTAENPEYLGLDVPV
T2 sequence (P04626 with tags, fused parts or gaps INS775YVMA): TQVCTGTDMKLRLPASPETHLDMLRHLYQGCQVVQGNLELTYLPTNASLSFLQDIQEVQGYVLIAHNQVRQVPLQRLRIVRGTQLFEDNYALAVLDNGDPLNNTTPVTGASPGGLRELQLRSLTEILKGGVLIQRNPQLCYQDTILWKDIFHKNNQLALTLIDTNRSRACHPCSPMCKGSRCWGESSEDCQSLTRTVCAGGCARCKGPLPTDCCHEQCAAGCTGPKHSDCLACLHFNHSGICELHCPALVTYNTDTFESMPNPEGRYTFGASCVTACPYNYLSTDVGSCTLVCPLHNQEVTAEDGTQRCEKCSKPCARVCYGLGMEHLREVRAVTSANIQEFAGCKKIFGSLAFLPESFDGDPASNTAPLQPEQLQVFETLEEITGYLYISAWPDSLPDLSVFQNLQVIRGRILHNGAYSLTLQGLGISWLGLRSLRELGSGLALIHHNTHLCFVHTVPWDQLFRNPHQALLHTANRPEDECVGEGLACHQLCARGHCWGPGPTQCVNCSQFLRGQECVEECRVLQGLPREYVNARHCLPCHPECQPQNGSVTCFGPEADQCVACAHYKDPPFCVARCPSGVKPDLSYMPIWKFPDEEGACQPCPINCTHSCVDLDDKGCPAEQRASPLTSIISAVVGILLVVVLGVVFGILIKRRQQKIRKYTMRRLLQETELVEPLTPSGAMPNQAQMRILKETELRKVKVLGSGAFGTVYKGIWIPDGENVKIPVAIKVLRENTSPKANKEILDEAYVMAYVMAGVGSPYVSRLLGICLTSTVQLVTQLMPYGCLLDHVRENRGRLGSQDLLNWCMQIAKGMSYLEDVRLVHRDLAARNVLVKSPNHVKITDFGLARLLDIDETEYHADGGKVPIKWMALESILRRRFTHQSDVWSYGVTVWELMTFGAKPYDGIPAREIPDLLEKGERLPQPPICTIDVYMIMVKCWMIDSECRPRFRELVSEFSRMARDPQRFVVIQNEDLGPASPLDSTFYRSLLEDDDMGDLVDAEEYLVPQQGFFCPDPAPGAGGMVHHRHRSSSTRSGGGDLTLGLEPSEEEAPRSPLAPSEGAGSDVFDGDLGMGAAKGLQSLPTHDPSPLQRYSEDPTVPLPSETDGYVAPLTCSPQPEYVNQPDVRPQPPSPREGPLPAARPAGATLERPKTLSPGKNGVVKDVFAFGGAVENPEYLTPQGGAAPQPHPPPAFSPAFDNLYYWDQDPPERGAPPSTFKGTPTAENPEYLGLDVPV
T4 sequence (P00533 with tags, fused parts or gaps DELINS30-297G): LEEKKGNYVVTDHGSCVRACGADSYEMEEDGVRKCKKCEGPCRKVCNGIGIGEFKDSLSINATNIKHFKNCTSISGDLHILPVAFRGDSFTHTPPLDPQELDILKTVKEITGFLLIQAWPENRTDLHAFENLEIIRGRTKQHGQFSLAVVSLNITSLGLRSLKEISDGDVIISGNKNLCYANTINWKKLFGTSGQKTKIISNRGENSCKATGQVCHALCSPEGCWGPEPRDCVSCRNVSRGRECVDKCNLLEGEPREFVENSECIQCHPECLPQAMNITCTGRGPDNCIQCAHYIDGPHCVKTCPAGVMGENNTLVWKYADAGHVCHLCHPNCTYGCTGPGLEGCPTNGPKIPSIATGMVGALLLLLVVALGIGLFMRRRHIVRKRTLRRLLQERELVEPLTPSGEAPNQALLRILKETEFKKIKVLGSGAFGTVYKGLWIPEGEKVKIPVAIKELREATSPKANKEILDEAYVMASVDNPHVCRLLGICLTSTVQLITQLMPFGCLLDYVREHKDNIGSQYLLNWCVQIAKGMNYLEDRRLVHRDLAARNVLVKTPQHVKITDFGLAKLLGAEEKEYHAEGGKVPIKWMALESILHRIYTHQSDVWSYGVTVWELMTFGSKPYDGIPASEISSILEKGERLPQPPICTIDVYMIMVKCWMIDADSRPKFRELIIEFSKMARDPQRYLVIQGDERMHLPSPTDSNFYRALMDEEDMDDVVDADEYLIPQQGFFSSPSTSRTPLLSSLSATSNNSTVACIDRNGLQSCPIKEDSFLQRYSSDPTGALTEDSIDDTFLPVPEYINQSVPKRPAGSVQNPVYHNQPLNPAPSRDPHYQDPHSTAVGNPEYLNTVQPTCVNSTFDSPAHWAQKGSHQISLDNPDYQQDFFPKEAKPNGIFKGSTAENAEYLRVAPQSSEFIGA

As to `C=CC(=O)Nc1cc2c(Nc3ccc(OCc4ccccn4)c(Cl)c3)ncnc2cc1C#C[C@@]1(C)CCN(C)C1` [Compound 14, (R)—N-(4-((3-chloro-4-(pyridin-2-ylmethoxy)phenyl)amino)-7-((1,3-dimethylpyrrolidin-3-yl)ethynyl)quinazolin-6-yl)acrylamide], the IC50 on EGFR wt was > 0.5 µM; on HER2 YVMA, 0.05 to 0.1 µM; against HER2 S310F it was ≤ 0.05 µM; on EGFR V3, ≤ 0.05 µM.
For `C=CC(=O)Nc1cc2c(Nc3cccc(Cl)c3F)ncnc2cc1C#C[C@@]12C[C@@H]1CN(C1COC1)C2` [Compound 50, N-(4-((3-chloro-2-fluorophenyl)amino)-7-(((1R,5S)-3-(oxetan-3-yl)-3-azabicyclo[3.1.0]hexan-1-yl)ethynyl)quinazolin-6-yl)acrylamide], the IC50 is 0.05 to 0.1 µM against EGFR wt, 0.1 to 0.5 µM against HER2 YVMA, 0.05 to 0.1 µM against HER2 S310F and ≤ 0.05 µM against EGFR V3.
For the molecule `C=CC(=O)Nc1cc2c(Nc3ccc(OCc4cccc(F)c4)c(Cl)c3)ncnc2cc1C#C[C@@H]1[C@H]2CN(C)C[C@@H]12` [Compound 76, N-(4-((3-chloro-4-((3-fluorobenzyl)oxy)-phenyl)amino)-7-(((1R,5S,6s)-3-methyl-3-azabicyclo[3.1.0]hexan-6-yl)ethynyl)quinazolin-6-yl)acrylamide], the 50% inhibitory concentration (IC50) on EGFR wt was > 0.5 µM; on HER2 YVMA, 0.1 to 0.5 µM; at HER2 S310F, 0.05 to 0.1 µM; against EGFR V3 it was 0.1 to 0.5 µM.
Consider `CN1C[C@H]2C[C@@]2(C#Cc2cc3ncnc(Nc4cccc(Cl)c4F)c3cc2NC(=O)/C=C/CN2CCCC(C(=O)O)C2)C1` (stereo partly drawn) [Compound 19, 1-[(E)-4-[[4-(3-chloro-2-fluoro-anilino)-7-[2-[(1R,5S)-3-methyl-3-azabicyclo[3.1.0]hexan-1-yl]ethynyl]quinazolin-6-yl]amino]-4-oxo-but-2-enyl]piperidine-3-carboxylic acid], for which the IC50 against EGFR wt is 0.1 to 0.5 µM; on HER2 YVMA it was > 0.5 µM; against HER2 S310F, 0.05 to 0.1 µM; against EGFR V3, > 0.5 µM.
As for `C=CC(=O)Nc1cc2c(Nc3cccc(Cl)c3F)ncnc2cc1C#CC1(C)CCCN(C)C1` (centres unmarked) [Compound 66, N-(4-((3-chloro-2-fluorophenyl)amino)-7-((1,3-dimethylpiperidin-3-yl)ethynyl)quinazolin-6-yl)acrylamide], the IC50 against EGFR wt is > 0.5 µM; against HER2 YVMA, > 0.5 µM; against HER2 S310F, 0.1 to 0.5 µM; against EGFR V3, ≤ 0.05 µM.
As for `C=CC(=O)Nc1cc2c(Nc3cccc(Cl)c3F)ncnc2cc1C#CC1(OC)CCN(C)C1` (centres unmarked) [Compound 52, N-(4-((3-chloro-2-fluorophenyl)amino)-7-((3-methoxy-1-methylpyrrolidin-3-yl)ethynyl)quinazolin-6-yl)acrylamide], the IC50 is 0.1 to 0.5 µM on EGFR wt, 0.1 to 0.5 µM against HER2 YVMA, 0.05 to 0.1 µM against HER2 S310F and ≤ 0.05 µM on EGFR V3.
On to `C=CC(=O)Nc1cc2c(Nc3ccc(Cl)c(Cl)c3F)ncnc2cc1C#CC1(C)CCN(C)C1` (centres unmarked) [Compound 7, N-(4-((3,4-dichloro-2-fluorophenyl)amino)-7-((1,3-dimethylpyrrolidin-3-yl)ethynyl)quinazolin-6-yl)acrylamide], for which the IC50 was ≤ 0.05 µM at EGFR wt, 0.1 to 0.5 µM on HER2 YVMA, 0.05 to 0.1 µM against HER2 S310F and ≤ 0.05 µM against EGFR V3.
On to `C=CC(=O)Nc1cc2c(Nc3ccc(Cl)c(Cl)c3F)ncnc2cc1C#CC1C2COCC12` (centres unmarked) [Compound No. 80, N-(7-(3-oxabicyclo[3.1.0]hexan-6-ylethynyl)-4-((3,4-dichloro-2-fluorophenyl)amino)quinazolin-6-yl)acrylamide], for which the half-maximal inhibitory concentration (IC50) was 0.05 to 0.1 µM at EGFR wt, 0.1 to 0.5 µM at HER2 YVMA, 0.05 to 0.1 µM against HER2 S310F and ≤ 0.05 µM on EGFR V3.
For `CC#CC(=O)Nc1cc2c(Nc3ccc(OCc4ccccn4)c(Cl)c3)ncnc2cc1C#CC1(C)CCN(C)C1` (centres unmarked) [Compound 70, N-(4-((3-chloro-4-(pyridin-2-ylmethoxy)phenyl)amino)-7-((1,3-dimethylpyrrolidin-3-yl)ethynyl)quinazolin-6-yl)but-2-ynamide], the IC50 was 0.05 to 0.1 µM on EGFR wt, ≤ 0.05 µM against HER2 YVMA, ≤ 0.05 µM against HER2 S310F and ≤ 0.05 µM on EGFR V3.
Regarding `C=CC(=O)Nc1cc2c(Nc3cccc(Cl)c3F)ncnc2cc1C#CC12CC1CN(C)C2` (centres unmarked) [Compound 65, N-(4-((3-chloro-2-fluorophenyl)amino)-7-((3-methyl-3-azabicyclo[3.1.0]hexan-1-yl)ethynyl)quinazolin-6-yl)acrylamide], the IC50 against EGFR wt was 0.1 to 0.5 µM; against HER2 YVMA it was 0.1 to 0.5 µM; on HER2 S310F, 0.05 to 0.1 µM; at EGFR V3 it was ≤ 0.05 µM.
As for `C=CC(=O)Nc1cc2c(Nc3cccc(Cl)c3F)ncnc2cc1C#C[C@@]1(C)CCCN(C)C1` [Compound 54, (R)—N-(4-((3-chloro-2-fluorophenyl)amino)-7-((1,3-dimethylpiperidin-3-yl)ethynyl)quinazolin-6-yl)acrylamide], the IC50 was > 0.5 µM against EGFR wt, > 0.5 µM against HER2 YVMA, 0.1 to 0.5 µM on HER2 S310F and 0.05 to 0.1 µM on EGFR V3.
On to `C=CC(=O)Nc1cc2c(Nc3cccc(Cl)c3F)ncnc2cc1C#CC1(C)CN(C)CC1(F)F` (centres unmarked) [Compound 55, N-(4-((3-chloro-2-fluorophenyl)amino)-7-((4,4-difluoro-1,3-dimethylpyrrolidin-3-yl)ethynyl)quinazolin-6-yl)acrylamide], for which the IC50 at EGFR wt is > 0.5 µM; against HER2 YVMA, > 0.5 µM; against HER2 S310F it was 0.1 to 0.5 µM; against EGFR V3, 0.1 to 0.5 µM.
As to `C=CC(=O)Nc1cc2c(Nc3cccc(Cl)c3F)ncnc2cc1C#C[C@@H]1[C@H]2CN(C)C[C@@H]12` [Compound 78, N-(4-((3-chloro-2-fluorophenyl)amino)-7-(((1R,5S,6s)-3-methyl-3-azabicyclo[3.1.0]hexan-6-yl)ethynyl)quinazolin-6-yl)acrylamide], the IC50 at EGFR wt was ≤ 0.05 µM; at HER2 YVMA it was 0.1 to 0.5 µM; on HER2 S310F, ≤ 0.05 µM; against EGFR V3, ≤ 0.05 µM.
In the case of `C=CC(=O)Nc1cc2c(Nc3ccc(OCc4ccccn4)c(Cl)c3)ncnc2cc1C#C[C@H]1[C@H]2CN(C)C[C@@H]12` [Compound 79, N-(4-((3-chloro-4-(pyridin-2-ylmethoxy)phenyl)amino)-7-(((1R,5S,6r)-3-methyl-3-azabicyclo[3.1.0]hexan-6-yl)ethynyl)quinazolin-6-yl)acrylamide], the IC50 against EGFR wt, at HER2 YVMA, on HER2 S310F and on EGFR V3 was > 0.5 µM in each case.
For the molecule `C=CC(=O)Nc1cc2c(Nc3cccc(Cl)c3F)ncnc2cc1C#C[C@]12C[C@H]1CN(C)C2` [Compound 49, N-(4-((3-chloro-2-fluorophenyl)amino)-7-(((1S,5R)-3-methyl-3-azabicyclo[3.1.0]hexan-1-yl)ethynyl)quinazolin-6-yl)acrylamide], the IC50 is 0.05 to 0.1 µM against EGFR wt, 0.1 to 0.5 µM against HER2 YVMA, 0.05 to 0.1 µM against HER2 S310F and ≤ 0.05 µM against EGFR V3.
As to `C=CC(=O)Nc1cc2c(Nc3ccc(OCc4cccc(F)c4)c(Cl)c3)ncnc2cc1C#CC1(C)CCOC1` (centres unmarked) [Compound 61, N-(4-((3-chloro-4-((3-fluorobenzyl)oxy)-phenyl)amino)-7-((3-methyltetrahydrofuran-3-yl)ethynyl)quinazolin-6-yl)acrylamide], the IC50 against EGFR wt was > 0.5 µM; at HER2 YVMA it was 0.1 to 0.5 µM; at HER2 S310F, 0.05 to 0.1 µM; at EGFR V3 it was 0.1 to 0.5 µM.
Take `C=CC(=O)Nc1cc2c(Nc3ccc(OCc4ccccn4)c(Cl)c3)ncnc2cc1C#C[C@]1(C)CCN(C)C1` [Compound 13, (S)—N-(4-((3-chloro-4-(pyridin-2-ylmethoxy)phenyl)amino)-7-((1,3-dimethylpyrrolidin-3-yl)ethynyl)quinazolin-6-yl)acrylamide]: the IC50 against EGFR wt was 0.1 to 0.5 µM; against HER2 YVMA, ≤ 0.05 µM; against HER2 S310F, ≤ 0.05 µM; against EGFR V3, ≤ 0.05 µM.
Regarding `C=C(F)C(=O)Nc1cc2c(Nc3cccc(Cl)c3F)ncnc2cc1C#CC1(C)CCN(C)C1` (centres unmarked) [Compound 5, N-(4-((3-chloro-2-fluorophenyl)amino)-7-((1,3-dimethylpyrrolidin-3-yl)ethynyl)quinazolin-6-yl)-2-fluoroacrylamide], the IC50 against EGFR wt is ≤ 0.05 µM; against HER2 YVMA, 0.1 to 0.5 µM; on HER2 S310F, 0.1 to 0.5 µM; on EGFR V3 it was ≤ 0.05 µM.
For the molecule `C=CC(=O)Nc1cc2c(Nc3cccc(Cl)c3F)ncnc2cc1C#C[C@@]1(F)CCN(C)C1` [Compound 45, N-{4-[(3-chloro-2-fluorophenyl)amino]-7-{2-[(3S)-3-fluoro-1-methylpyrrolidin-3-yl]ethynyl}quinazolin-6-yl}prop-2-enamide], the IC50 at EGFR wt was 0.1 to 0.5 µM; against HER2 YVMA, > 0.5 µM; at HER2 S310F, 0.1 to 0.5 µM; against EGFR V3 it was ≤ 0.05 µM.
For `C=CC(=O)Nc1cc2c(Nc3cccc(Cl)c3F)ncnc2cc1C#CC12CC1CN(C1COC1)C2` (centres unmarked) [Compound 64, N-(4-((3-chloro-2-fluorophenyl)amino)-7-((3-(oxetan-3-yl)-3-azabicyclo[3.1.0]hexan-1-yl)ethynyl)quinazolin-6-yl)acrylamide], the half-maximal inhibitory concentration (IC50) against EGFR wt is 0.1 to 0.5 µM; against HER2 YVMA it was 0.1 to 0.5 µM; against HER2 S310F, 0.1 to 0.5 µM; at EGFR V3, ≤ 0.05 µM.
